# ChEMBL document CHEMBL1137582, “Quinazoline and benzimidazole MCH-1R antagonists” (Bioorg Med Chem Lett, 2007)
# Activity calls are given as the source filed them. The calls are words filed in the database; no cut-off is given here.
# Key:
# [1] = molecular target: T1, Melanin-concentrating hormone receptor 1 (Homo sapiens, UniProt Q99705); test: Displacement of 125I-[Phe13,Tyr19]-MCH from MCH-R1 expressing cell membranes
# [2] = molecular target: T1, Melanin-concentrating hormone receptor 1; test: Inhibition of MCH-mediated calcium influx into MCH-R1 expressing cells; assay type: functional
# [3] = molecular target: T1, Melanin-concentrating hormone receptor 1; test: Inhibition of 125I-[Phe13,Tyr19]-MCH binding to MCH-R1 expressing cell membranes at 1uM
# Cytochrome P450 2C19 = Cytochrome P450 2C19 (Homo sapiens, UniProt P33261); test: Inhibition of human CYP2C19 at 1uM; assay type: ADME
# Cytochrome P450 1A2 = molecular target: T2, Cytochrome P450 1A2 (Homo sapiens, UniProt P05177); test: Inhibition of human CYP1A2 at 1uM; assay type: ADME
# T2 sequence (P05177 whole entry): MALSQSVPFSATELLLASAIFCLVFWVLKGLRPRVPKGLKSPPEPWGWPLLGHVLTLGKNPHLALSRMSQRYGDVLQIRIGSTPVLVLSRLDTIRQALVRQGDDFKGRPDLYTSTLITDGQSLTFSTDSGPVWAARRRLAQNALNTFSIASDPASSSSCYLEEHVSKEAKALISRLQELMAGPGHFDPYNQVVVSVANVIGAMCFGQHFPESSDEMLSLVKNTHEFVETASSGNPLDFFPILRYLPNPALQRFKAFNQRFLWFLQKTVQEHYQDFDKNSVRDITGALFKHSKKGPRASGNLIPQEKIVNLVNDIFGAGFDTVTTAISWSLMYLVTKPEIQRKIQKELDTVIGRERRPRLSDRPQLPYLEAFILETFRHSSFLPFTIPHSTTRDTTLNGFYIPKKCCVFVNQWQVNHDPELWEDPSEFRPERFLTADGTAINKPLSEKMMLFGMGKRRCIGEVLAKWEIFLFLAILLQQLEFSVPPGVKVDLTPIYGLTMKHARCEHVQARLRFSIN
# [4] = molecular target: 5-hydroxytryptamine receptor 2A (Homo sapiens) (UniProt P28223); test: Inhibition of 5HT2A at 10uM
# [5] = molecular target: T3, Adrenergic receptor alpha-1 (Homo sapiens, UniProt P35348+P25100+P35368); test: Inhibition of adrenergic alpha-1 receptor; assay type: protein assay
# T3 sequence (P35348 whole entry): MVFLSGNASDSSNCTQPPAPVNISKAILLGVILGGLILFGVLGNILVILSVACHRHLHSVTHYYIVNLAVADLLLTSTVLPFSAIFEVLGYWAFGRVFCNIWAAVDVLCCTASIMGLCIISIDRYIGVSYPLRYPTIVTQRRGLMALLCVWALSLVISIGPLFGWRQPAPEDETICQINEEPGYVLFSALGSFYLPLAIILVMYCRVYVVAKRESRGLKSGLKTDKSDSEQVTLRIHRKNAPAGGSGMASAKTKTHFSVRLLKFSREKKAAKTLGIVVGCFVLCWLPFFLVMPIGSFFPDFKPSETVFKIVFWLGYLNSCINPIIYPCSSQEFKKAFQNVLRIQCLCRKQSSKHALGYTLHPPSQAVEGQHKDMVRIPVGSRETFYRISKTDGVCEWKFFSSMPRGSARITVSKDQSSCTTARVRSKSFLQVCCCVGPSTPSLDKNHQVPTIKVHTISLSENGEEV
# T3 sequence (P25100 whole entry): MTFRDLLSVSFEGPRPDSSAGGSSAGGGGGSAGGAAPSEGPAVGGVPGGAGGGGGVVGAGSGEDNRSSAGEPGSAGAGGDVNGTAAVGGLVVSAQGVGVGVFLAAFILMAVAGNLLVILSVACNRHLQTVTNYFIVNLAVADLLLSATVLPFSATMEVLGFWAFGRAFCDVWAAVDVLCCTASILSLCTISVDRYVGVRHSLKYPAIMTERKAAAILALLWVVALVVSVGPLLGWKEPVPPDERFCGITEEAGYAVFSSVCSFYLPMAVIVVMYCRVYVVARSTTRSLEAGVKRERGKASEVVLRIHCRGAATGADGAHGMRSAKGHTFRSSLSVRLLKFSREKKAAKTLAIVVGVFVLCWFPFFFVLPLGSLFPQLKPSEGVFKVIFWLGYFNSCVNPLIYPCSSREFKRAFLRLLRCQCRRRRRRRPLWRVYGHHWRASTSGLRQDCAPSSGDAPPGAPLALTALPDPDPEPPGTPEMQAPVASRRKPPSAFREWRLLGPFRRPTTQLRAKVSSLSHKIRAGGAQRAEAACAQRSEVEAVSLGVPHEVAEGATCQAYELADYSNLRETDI
# T3 sequence (P35368 whole entry): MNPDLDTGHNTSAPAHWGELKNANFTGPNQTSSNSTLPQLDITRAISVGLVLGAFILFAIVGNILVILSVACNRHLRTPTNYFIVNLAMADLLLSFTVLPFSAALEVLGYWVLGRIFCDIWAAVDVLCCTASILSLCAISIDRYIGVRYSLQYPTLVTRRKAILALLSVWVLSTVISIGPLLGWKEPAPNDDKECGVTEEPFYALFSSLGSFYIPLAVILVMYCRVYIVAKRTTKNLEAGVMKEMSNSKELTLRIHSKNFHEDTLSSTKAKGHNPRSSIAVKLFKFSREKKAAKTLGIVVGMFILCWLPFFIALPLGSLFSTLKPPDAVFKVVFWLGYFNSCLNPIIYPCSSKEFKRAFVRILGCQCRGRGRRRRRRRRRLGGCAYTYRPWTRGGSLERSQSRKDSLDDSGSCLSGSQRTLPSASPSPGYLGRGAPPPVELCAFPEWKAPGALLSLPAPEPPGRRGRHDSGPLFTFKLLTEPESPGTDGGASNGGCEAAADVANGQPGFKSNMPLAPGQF
# [6] = molecular target: 5-hydroxytryptamine receptor 2B (Homo sapiens, UniProt P41595); test: Inhibition of 5HT2B
# Cytochrome P450 2D6 = Cytochrome P450 2D6 (Homo sapiens, UniProt P10635); test: Inhibition of human CYP2D6 at 1uM; assay type: ADME
# [7] = molecular target: T4, Melanin-concentrating hormone receptor 2 (Homo sapiens, UniProt Q969V1); test: Inhibition of MCH-R2
# Cytochrome P450 2C9 = Cytochrome P450 2C9 (Homo sapiens, UniProt P11712); test: Inhibition of human CYP2C9 at 1uM; assay type: ADME
# Cytochrome P450 3A4 = Cytochrome P450 3A4 (Homo sapiens, UniProt P08684); test: Inhibition of human CYP3A4 at 1uM; assay type: ADME
# [8] = Solubility at pH7.4; assay type: physicochemical; conditions: buffer, pH 7.4
# [9] = molecular target: T5, 5-hydroxytryptamine receptor 2C (Homo sapiens) (UniProt P28335); test: Inhibition of 5HT2C at 10uM
# T5 sequence (whole entry): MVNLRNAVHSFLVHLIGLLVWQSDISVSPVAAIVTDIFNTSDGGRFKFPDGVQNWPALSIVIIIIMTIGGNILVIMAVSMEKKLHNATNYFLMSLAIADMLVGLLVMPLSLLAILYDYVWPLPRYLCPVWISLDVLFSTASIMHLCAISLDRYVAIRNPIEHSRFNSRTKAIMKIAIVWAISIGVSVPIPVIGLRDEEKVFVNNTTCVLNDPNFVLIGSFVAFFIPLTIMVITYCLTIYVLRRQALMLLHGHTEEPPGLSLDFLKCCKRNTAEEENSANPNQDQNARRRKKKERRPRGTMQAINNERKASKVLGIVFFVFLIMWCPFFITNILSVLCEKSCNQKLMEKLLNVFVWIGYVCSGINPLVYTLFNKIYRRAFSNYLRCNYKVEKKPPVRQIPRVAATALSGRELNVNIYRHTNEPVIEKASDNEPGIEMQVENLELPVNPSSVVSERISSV
# D(2) dopamine receptor [10] = molecular target: T6, D(2) dopamine receptor (Homo sapiens, UniProt P14416); test: Inhibition of D2(L) at 10uM
# D(2) dopamine receptor [11] = molecular target: T6, D(2) dopamine receptor; test: Inhibition of D2(L)
# [12] = molecular target: Adrenergic receptor alpha-1 (Homo sapiens) (UniProt P35348+P25100+P35368); test: Inhibition of adrenergic alpha-1 receptor at 10uM; assay type: protein assay
# [13] = molecular target: Voltage-gated inwardly rectifying potassium channel KCNH2 (Homo sapiens, UniProt Q12809); test: Inhibition of hERG in patch-clamp assay; assay type: toxicity
# [14] = molecular target: T4, Melanin-concentrating hormone receptor 2; test: Inhibition of MCH-R2 at 10uM
# T1 sequence (Q99705 whole entry): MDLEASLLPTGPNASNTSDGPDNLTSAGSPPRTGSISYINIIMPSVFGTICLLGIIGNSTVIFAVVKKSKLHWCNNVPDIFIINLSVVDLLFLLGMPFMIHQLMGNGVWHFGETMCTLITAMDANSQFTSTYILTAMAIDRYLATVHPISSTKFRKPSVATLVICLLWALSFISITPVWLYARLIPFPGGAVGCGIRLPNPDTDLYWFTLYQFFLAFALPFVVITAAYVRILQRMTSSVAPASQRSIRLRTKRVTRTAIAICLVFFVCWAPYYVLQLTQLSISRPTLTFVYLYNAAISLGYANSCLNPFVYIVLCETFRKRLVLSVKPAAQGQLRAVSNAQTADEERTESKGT
# Cytochrome P450 2D6, sequence (P10635 whole entry): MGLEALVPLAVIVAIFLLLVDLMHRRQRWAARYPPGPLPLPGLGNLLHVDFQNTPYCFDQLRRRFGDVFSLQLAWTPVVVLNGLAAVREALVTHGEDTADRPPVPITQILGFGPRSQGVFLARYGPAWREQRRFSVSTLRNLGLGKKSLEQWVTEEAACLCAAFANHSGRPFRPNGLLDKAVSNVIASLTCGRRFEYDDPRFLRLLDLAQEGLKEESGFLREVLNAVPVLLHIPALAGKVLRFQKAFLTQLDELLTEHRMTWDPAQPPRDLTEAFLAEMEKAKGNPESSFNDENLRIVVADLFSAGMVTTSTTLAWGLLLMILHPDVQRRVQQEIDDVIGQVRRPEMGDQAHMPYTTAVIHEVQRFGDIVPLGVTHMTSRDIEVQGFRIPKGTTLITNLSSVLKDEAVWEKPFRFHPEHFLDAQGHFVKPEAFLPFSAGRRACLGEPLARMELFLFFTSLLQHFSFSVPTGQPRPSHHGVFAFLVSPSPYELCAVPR
# 5-hydroxytryptamine receptor 2B, sequence (P41595 whole entry): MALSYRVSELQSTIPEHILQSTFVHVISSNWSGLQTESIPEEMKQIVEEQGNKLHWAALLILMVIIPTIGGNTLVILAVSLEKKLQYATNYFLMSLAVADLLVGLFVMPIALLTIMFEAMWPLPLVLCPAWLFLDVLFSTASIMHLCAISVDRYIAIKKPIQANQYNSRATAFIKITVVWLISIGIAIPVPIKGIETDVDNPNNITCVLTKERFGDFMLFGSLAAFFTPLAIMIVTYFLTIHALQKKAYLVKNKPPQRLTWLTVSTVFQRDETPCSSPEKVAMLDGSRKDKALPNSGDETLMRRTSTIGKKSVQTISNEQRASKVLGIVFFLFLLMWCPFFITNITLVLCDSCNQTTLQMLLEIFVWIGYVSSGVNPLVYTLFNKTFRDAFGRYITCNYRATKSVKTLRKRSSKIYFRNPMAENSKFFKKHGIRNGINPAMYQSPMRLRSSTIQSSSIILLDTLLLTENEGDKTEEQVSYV
# T6 sequence (P14416 whole entry): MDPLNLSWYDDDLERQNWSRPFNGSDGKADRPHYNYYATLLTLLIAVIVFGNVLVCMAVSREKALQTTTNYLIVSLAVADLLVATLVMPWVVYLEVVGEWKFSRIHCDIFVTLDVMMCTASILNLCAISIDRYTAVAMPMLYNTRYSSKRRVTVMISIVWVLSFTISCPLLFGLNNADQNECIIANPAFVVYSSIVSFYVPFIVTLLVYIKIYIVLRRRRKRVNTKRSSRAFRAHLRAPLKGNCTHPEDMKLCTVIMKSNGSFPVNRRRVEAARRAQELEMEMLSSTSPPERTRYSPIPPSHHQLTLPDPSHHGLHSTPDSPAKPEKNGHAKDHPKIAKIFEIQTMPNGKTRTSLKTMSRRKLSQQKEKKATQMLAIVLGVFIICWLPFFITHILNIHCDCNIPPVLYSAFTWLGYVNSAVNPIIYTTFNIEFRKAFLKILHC
# Cytochrome P450 2C19, sequence (P33261 whole entry): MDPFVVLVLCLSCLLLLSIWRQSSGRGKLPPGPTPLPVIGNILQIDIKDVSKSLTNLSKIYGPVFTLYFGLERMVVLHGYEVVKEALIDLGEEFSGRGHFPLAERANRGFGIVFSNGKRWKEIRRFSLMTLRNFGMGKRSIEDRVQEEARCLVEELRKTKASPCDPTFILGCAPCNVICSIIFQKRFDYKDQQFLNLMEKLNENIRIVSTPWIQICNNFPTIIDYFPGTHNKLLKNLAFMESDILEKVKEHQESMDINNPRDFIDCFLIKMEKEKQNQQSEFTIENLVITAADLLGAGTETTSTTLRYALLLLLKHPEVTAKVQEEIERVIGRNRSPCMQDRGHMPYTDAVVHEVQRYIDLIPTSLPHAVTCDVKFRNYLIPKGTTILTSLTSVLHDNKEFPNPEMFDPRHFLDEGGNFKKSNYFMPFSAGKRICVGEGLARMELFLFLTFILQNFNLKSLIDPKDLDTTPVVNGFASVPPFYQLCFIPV
# Cytochrome P450 2C9, sequence (P11712 whole entry): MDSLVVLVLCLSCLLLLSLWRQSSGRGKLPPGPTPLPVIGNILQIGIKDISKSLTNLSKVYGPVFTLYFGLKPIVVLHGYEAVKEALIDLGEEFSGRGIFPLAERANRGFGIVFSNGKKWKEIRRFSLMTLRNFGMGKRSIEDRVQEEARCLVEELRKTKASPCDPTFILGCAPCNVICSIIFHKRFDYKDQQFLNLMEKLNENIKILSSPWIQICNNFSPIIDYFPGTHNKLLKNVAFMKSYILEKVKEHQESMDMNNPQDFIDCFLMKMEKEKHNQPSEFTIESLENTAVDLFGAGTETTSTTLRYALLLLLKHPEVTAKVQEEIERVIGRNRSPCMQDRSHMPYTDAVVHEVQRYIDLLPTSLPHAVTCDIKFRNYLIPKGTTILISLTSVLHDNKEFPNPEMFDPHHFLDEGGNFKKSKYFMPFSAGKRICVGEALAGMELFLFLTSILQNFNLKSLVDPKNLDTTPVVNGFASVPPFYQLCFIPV
# Cytochrome P450 3A4, sequence (P08684 whole entry): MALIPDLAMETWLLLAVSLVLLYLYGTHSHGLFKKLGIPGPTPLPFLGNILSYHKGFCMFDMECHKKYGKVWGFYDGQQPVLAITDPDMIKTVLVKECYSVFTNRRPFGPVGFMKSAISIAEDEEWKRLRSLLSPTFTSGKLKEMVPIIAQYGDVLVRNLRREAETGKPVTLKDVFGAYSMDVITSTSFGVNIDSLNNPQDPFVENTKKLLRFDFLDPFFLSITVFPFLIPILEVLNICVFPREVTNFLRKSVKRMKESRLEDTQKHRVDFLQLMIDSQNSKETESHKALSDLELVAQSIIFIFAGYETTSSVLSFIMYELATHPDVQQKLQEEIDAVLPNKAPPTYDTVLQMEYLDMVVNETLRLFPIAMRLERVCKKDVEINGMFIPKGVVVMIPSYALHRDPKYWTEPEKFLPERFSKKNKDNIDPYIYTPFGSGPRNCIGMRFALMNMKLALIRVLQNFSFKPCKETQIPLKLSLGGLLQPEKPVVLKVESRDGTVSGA
# 5-hydroxytryptamine receptor 2A (Homo sapiens), sequence (P28223 whole entry): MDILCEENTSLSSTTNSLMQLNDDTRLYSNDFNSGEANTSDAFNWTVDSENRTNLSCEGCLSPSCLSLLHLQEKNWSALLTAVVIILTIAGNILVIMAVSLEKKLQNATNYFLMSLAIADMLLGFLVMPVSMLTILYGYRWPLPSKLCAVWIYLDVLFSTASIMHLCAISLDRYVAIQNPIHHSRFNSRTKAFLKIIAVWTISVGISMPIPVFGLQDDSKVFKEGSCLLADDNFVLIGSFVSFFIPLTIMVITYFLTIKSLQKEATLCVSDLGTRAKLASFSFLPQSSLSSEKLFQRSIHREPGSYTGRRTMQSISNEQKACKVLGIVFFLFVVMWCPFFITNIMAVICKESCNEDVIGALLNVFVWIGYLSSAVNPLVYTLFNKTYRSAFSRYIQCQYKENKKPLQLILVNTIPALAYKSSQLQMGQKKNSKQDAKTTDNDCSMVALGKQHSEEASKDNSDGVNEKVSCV
# T4 sequence (Q969V1 whole entry): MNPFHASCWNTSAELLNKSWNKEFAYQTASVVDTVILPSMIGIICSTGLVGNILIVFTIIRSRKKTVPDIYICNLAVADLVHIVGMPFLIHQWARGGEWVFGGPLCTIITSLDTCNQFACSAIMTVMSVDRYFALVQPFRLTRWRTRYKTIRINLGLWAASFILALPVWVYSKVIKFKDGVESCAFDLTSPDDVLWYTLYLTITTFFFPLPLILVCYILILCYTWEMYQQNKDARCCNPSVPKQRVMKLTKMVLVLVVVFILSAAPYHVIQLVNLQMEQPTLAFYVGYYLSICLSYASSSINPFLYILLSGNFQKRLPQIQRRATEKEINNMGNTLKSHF
structure (smiles),measurement,setting,value
O=C(COc1ccc(C(F)(F)F)cc1)Nc1ccc2nc(N3CCCC3)[nH]c2c1,IC50,[1],35 nM
same,IC50,[2],9 nM
O=C(COc1ccc(Cl)cc1)Nc1ccc2nc(N3CCOCC3)cnc2c1,inhibition,[3],inactive
O=C(COc1ccc(Cl)cc1)Nc1ccc2nc(N3CCOCC3)ccc2c1,IC50,[1],961 nM
Cc1nc(N(C)CCN(C)C)nc2ccc(NC(=O)COc3ccc(C(F)(F)F)cc3)cc12,IC50,[1],260 nM
same,IC50,[2],164 nM
O=C(COc1ccc(C(F)(F)F)cc1)Nc1ccc2nc(N3CCOCC3)cnc2c1,inhibition,[3],inactive
CN(C)CCN(C)c1nc2ccc(NC(=O)COc3ccc(C(F)(F)F)cc3)cc2n1C,Inhibition,Cytochrome P450 2C19,Not Active
same,Inhibition,Cytochrome P450 1A2,Not Active
same,inhibition,[4],22%
same,IC50,[5],27000 nM
same,IC50,[6],1500 nM
same,IC50,[1],25 nM
same,Inhibition,Cytochrome P450 2D6,Not Active
same,IC50,[7],> 30000 nM
same,Inhibition,Cytochrome P450 2C9,Not Active
same,Inhibition,Cytochrome P450 3A4,Not Active
same,solubility,[8],> 1000 µg/mL
same,IC50,[2],28 nM
same,inhibition,[9],7%
same,inhibition,D(2) dopamine receptor [10],19%
O=C(COc1ccc(C(F)(F)F)cc1)Nc1ccc2nc(N3CCOCC3)ccc2c1,IC50,[1],172 nM
Cc1nc(N2CCCC2)nc2ccc(NC(=O)COc3ccc(C(F)(F)F)cc3)cc12,IC50,[1],165 nM
same,IC50,[2],100 nM
Cc1nc(N2CCCC2)nc2ccc(NC(=O)COc3ccc(Cl)cc3)cc12,Inhibition,Cytochrome P450 2C19,Not Active
same,Inhibition,Cytochrome P450 1A2,Not Active
same,IC50,D(2) dopamine receptor [11],> 100000 nM
same,inhibition,[4],0%
same,IC50,[6],1900 nM
same,IC50,[1],250 nM
same,Inhibition,Cytochrome P450 2D6,Not Active
same,inhibition,[12],28%
same,Inhibition,Cytochrome P450 2C9,Not Active
same,Inhibition,Cytochrome P450 3A4,Not Active
same,IC50,[13],10000 nM
same,IC50,[2],58 nM
same,inhibition,[9],39%
same,inhibition,[14],2%
Cc1nc(N2CCCC2)nc2ccc(NC(=O)COc3ccccc3Cl)cc12,IC50,[1],1930 nM
COc1ccc(OCC(=O)Nc2ccc3nc(N4CCCC4)nc(C)c3c2)cc1,IC50,[1],390 nM
same,IC50,[2],41 nM
Cc1nc(N2CCCC2)nc2ccc(NC(=O)COc3cccc(Cl)c3)cc12,Inhibition,[3],7%
Cc1cc(N2CCCC2)nc2ccc(NC(=O)COc3ccc(C(F)(F)F)cc3)cc12,IC50,[1],15 nM
Cn1c(N2CCCC2)nc2ccc(NC(=O)COc3ccc(C(F)(F)F)cc3)cc21,IC50,[1],40 nM
same,IC50,[2],9 nM
CC(C)Nc1nc2ccc(NC(=O)COc3ccc(C(F)(F)F)cc3)cc2n1C,IC50,[1],70 nM
same,IC50,[2],101 nM
